In data set [1] the test system is different cancer cells, including breast, melanoma, colon and pancreatic cancers. Briefly: MTT cell viability assay in different cancer cells. To be noted: MTT assay with 24 M inhibitors, M13 the best of all tested. The format is cell-based, human. The protocol:
(§1) Cell Viability Assay. The cells were treated with compounds at different concentrations for 24 hours. The 3-(4,5-dimethylthiazol-2-yl)-5-(3-carboxymethoxyphenyl)-2-(4-sulfophenyl)-2H-tetrazolium compound from Promega Viability kit (Madison, Ill.) was added, and the cells were incubated at 37 C for 1-2 hours. The optical density on 96-plate was analyzed with a microplate reader at 490 nm to determine cell viability.
The name of this compound is Monotritylthymidine and it is available and was ordered from Sigma.

The test system of data set [2] is colon cancer HCT116 p53−/− cells. Briefly: Detachment assay, HCT116 p53−/−. To be noted: dose-dependent. Type of data set: cell-based, human. The protocol:
(§2) Detachment Assay. Cells were plated with and without inhibitors for 24 hours, and detached and attached cells were counted in a hemocytometer. We calculated the percent of detachment by dividing the number of detached cells by the total number of cells. The percent of detached cells was calculated in three independent experiments.
(§3) To study M13 effect in colon cancer cells and its dependence on p53 pathway, we did similar experiments to BT474 cells with colon cancer HCT116 p53−/− and p53+/+ cells. […] Thus, the in vitro effect of M13 on viability, detachment and apoptosis was p53-independent.

Data set [3] has as its target T1, complex of FAK and Mdm-2 in BT474 cells (Homo sapiens, UniProt Q05397).
T1 construct: We immunoprecipitated FAK and found complex of FAK with Mdm-2; endogenous in cells; host or cells: BT474 breast cancer cells
Kind of data set: Immunoprecipitation of FAK, complex with Mdm-2. The format is cell-based. Set-up: dose or concentration left out as unconfirmed. On the procedure:
Immunoprecipitation. Immunoprecipitation was performed according to the standard protocol. In brief, the pre-cleared lysates with equal amount of protein were incubated with 1 μg of primary antibody and 30 μl A/G agarose beads overnight at 4° C. The precipitates were washed with lysis buffer three times and re-suspended in 2×Laemmli buffer. The boiled samples were used for Western blotting, as described above.
M13 disrupts complex of FAK and Mdm-2 in BT474 cells. We immunoprecipitated FAK and found complex of FAK with Mdm-2, confirming and reproducing data of Lim et al, Molecular Cell, 2008. At […] dose of M13, there was decreased level of FAK and complex with Mdm-2.

In data set [4] the test system is BT474 breast cancer cells. Briefly: Apoptosis assay (Hoechst 33342), BT474. The format is cell-based, human. As to conditions: BT474, Hoechst 33342 staining of detached cells. On the procedure:
(§4) Apoptosis Assay. Detached cells were collected and fixed in 3.7% formaldehyde in 1×PBS solution for the apoptosis assay. Detection of apoptosis was done with Hoechst 33342 staining. The percent of apoptotic cells was calculated as a ratio of apoptotic detached cells divided by the total number of cells in three independent experiments in several fields with the fluorescent microscope. For each experiment 300 cells per treatment were counted.

Data set [5] deals with BT474 cells. Kind of data set: Tumor growth in nude mice, BT474. The format is in vivo. To be noted: BT474 subcutaneous tumors, 30 mg/kg IP daily 5 days/week for 3 weeks. The protocol:
(§5) Tumor Growth in Nude Mice in vivo. Female nude mice, 6 weeks old, were purchased from Harlan Laboratory. The mice were maintained in the animal facility and all experiments were performed in compliance with NIH animal-use guidelines and IACUC protocol approved by the UF Animal Care Committee. BT474 cells were injected, 2×10^6 cells/injection subcutaneously. HCT116p53−/− and HCT116p53+/+ cells were injected subcutaneously into the left and right side of the same mice to decrease variations. In preliminary experiment different doses of the compound were introduced into the mice, and 30-50 mg/kg was chosen as optimal, non-toxic doses. The day after injection, the M13 compound was introduced by IP injection at 30 mg/kg dose daily 5 days/week for 3 weeks. Tumor diameters were measured with calipers and tumor volume in mm^3 was calculated using this formula=(width)^2×Length/2. At the end of experiment, tumor weight and volume was determined.
M13 decreased breast tumorigenesis in vivo Breast cancer BT474 cells were implanted into the mice to generate tumors.

In data set [6] the test system is HCT116p53+/+ cells. Briefly: Tumor growth in nude mice, HCT116 p53+/+. Type of data set: in vivo. To be noted: HCT116 p53+/+ subcutaneous tumors, 30 mg/kg IP; no significant difference to p53−/−. On the procedure: as §5
(§6) M13 decreased similarly colon tumorigenesis in both HCT116 p53+/+ and p53−/− in vivo. […] Thus, in vivo effect of M13 on tumorigenesis is p53-independent.

Details of data set [7]: species or system nude mice. As to conditions: female, nude, mouse, in vivo. On the procedure: as §5
Data set [8] has as its system BT474 breast cancer cells. Briefly: Detachment assay, BT474. To be noted: BT474, 24 hours. Type of data set: cell-based, human. The protocol: as §2
Data set [9] relates to colon cancer HCT116 p53+/+ cells. Briefly: Apoptosis assay, HCT116 p53+/+. The format is cell-based, human. As to conditions: dose-dependent. On the procedure:
as §4, §3

Data set [10] relates to BT474 cells. Kind of data set: Western blotting of BT474 cells (FAK, Y397-FAK, Mdm-2, p53, caspase-8). The format is cell-based, human. As to conditions: BT474, different doses of M13, Western blot. The protocol:
Western Blotting. Cells or homogenized tumor samples were washed twice with cold 1×PBS and lysed on ice for 30 minutes in a buffer containing: 50 mM Tris-HCl (pH 7.5), 150 mM NaCl, 1% Triton-X, 0.5% NaDOC, 0.1% SDS, 5 mM EDTA, 50 mM NaF, 1 mM NaVO3, 10% glycerol and protease inhibitors: 10 μg/ml leupeptin, 10 μg/ml PMSF and 1 μg/m1 aprotinin. The lysates were cleared by centrifugation at 10,000 rpm for 30 minutes at 4° C. Protein concentrations were determined using a Bio-Rad Kit. The boiled samples were loaded on Ready SDS-10% PAGE gels (Bio Rad, Inc) and used for Western blot analysis with the protein-specific antibody. Immunoblots were developed with chemiluminescence Renaissance reagent (NEN Life Science Products, Inc). For quantification, densitometry of protein bands was performed with NIH Scion Image software.
M13 caused dose-dependent increase of Mdm-2, decrease of FAK and activation of caspase-8 in BT474 cells. We treated BT474 cells with different doses of M13 and performed Western blotting with anti-FAK, Y397-FAK, Mdm-2, p53 and caspase-8 antibodies.
In general terms: Immunoblotting shows a protein as a band on a membrane.

The subject of data set [11] is colon cancer HCT116 p53−/− cells. Briefly: Cell viability assay, HCT116 p53−/−. The format is cell-based, human. As to conditions: dose-dependent. The protocol:
(§7) Cell lines and culture. BT474 breast carcinoma cells were maintained in RPMI1640 medium supplemented with 10% fetal bovine serum (FBS), 5 μg/ml insulin, and 1 μg/ml penicillin/streptomycin. The MCF-7 cell line was obtained from ATCC and maintained according to the manufacturer's protocol. HCT116p53+/+ and p53−/− colon cancer cells were maintained in McCoy's5A medium with 10% FBS.
as §1, §3

Data set [12] has the same test system. Kind of data set: Apoptosis assay, HCT116 p53−/−. Type of data set: cell-based, human. To be noted: dose-dependent. The protocol:
as §4, §3

The subject of data set [13] is colon cancer HCT116 p53+/+ cells. Kind of data set: Detachment assay, HCT116 p53+/+. The format is cell-based, human. As to conditions: dose-dependent. The protocol: as §2, §3
The test system of data set [14] is HCT116p53−/− cells. Briefly: Tumor growth in nude mice, HCT116 p53−/−. Type of data set: in vivo. As to conditions: HCT116 p53−/− subcutaneous tumors, 30 mg/kg IP; no significant difference to p53+/+. On the procedure: as §5, §6
Data set [15] deals with colon cancer HCT116 p53+/+ cells. Briefly: Cell viability assay, HCT116 p53+/+. The format is cell-based, human. As to conditions: dose-dependent. The protocol:
as §7, §1, §3

Data set [16] has as its system BT474 breast cancer cells. Briefly: Cell viability (MTT) assay, BT474. The format is cell-based, human. To be noted: different concentrations, 24 hours. On the procedure:
as §7, §1

Data set [17] deals with MCF-7 breast cancer cells. Kind of data set: Viability, detachment and apoptosis, MCF-7. The format is cell-based, human. To be noted: MCF-7, compared with BT474. On the procedure: as §7, §1, §2
Apoptosis Assay. […] The percent of apoptotic cells was calculated as a ratio of apoptotic detached cells divided by the total number of cells in three independent experiments in several fields with the fluorescent microscope. […]

T1 sequence (Q05397 whole entry, one chain of several): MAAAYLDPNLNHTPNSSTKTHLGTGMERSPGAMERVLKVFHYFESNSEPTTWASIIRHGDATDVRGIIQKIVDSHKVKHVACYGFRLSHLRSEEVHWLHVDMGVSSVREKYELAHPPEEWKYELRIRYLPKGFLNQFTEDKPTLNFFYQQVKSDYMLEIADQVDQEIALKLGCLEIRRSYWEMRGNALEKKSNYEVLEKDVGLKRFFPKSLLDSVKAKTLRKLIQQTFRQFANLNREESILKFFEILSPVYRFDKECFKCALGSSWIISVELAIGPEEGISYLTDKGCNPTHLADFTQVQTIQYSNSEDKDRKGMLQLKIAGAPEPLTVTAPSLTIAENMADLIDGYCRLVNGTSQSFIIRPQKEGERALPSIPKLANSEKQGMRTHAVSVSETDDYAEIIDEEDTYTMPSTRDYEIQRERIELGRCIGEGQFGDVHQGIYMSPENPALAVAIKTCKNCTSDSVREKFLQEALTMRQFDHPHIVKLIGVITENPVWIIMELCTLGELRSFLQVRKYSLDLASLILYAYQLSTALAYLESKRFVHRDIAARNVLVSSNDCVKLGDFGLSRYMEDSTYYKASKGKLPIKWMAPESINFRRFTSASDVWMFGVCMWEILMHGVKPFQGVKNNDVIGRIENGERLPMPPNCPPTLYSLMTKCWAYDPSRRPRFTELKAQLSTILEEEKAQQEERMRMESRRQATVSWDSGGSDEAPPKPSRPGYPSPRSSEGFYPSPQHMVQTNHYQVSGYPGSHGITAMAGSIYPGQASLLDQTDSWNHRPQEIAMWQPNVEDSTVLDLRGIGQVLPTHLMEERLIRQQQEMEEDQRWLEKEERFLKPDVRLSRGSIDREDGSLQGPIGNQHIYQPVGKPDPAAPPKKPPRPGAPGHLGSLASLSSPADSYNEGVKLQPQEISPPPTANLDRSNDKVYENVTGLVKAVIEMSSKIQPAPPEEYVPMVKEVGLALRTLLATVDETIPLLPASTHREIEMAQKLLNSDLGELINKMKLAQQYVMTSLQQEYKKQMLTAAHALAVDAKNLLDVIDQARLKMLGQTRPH

On to `Cc1cn(C2CC(O)C(COC(c3ccccc3)(c3ccccc3)c3ccccc3)O2)c(=O)[nH]c1=O` (stereo not shown) [M13, 1-[4-hydroxy-5-[tri(phenyl)methoxymethyl]oxolan-2-yl]-5-methylpyrimidine-2,4-dione], for which the “viability of cancer cells” value in data set [1] is given as “significantly decreased viability of most cancer cells”. Further, the detachment entry in data set [2] is “increased detachment”; in [8], “dose-dependent increase detachment”; in [13], “increased detachment”. Also, in data set [3], the “association of FAK and Mdm-2 (complex)” value is “decreased association of FAK and Mdm-2”. Besides, the apoptosis entry in [4] was “dose-dependent increase detachment and apoptosis”; in data set [9] it was “increased detachment and apoptosis”; in data set [12], “increased detachment and apoptosis”. Further, the “breast tumorigenesis in vivo” value in data set [5] is listed as “effectively decreased breast tumorigenesis”. Also, the tumor size entry in [6] and in data set [14] was “decrease of tumor size” throughout. Also, in data set [7], the “optimal, non-toxic doses” value was in the range of 30 to 50 mg/kg. Besides, in data set [10], the FAK levels entry is reported as “decreased FAK levels”. Besides, in data set [10], the Mdm-2 levels result is reported as “increased Mdm-2 levels”. Also, the “activation of caspase-8” value in data set [10] was “caused activation of caspase-8”. The viability result in [11] is reported as “equally decreased viability”; in data set [15], “equally decreased viability”; in data set [16] it was “decreased viability of BT474 breast cancer cells in a dose-dependent manner”. The “effect on viability, detachment and apoptosis” value in data set [17] is given as “the same as with BT474 cells”.
